Test results taken from patent publication US12668584B2, “Heterocyclic compounds as kinase inhibitors for therapeutic uses” (National Health Research Institutes, priority 2019, dated 2026).

Target: T1, Aurora A (Homo sapiens, UniProt O14965)
T1 sequence (O14965 1-403): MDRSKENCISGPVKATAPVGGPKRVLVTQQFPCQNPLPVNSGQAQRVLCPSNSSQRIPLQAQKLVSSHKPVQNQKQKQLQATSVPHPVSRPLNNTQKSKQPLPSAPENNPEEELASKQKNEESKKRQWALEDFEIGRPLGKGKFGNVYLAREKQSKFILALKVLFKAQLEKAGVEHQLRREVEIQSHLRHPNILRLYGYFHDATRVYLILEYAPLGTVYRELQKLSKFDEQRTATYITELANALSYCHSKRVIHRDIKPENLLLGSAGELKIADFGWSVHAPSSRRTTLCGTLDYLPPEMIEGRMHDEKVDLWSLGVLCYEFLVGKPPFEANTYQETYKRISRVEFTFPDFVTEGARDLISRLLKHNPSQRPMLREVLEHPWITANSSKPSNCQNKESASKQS
Assay: HotSpot kinase profiling, Aurora A
Assay type: biochemical
Conditions: HotSpot assay, 10 μM ATP; IC50 of kinase divided by that of CSF1R
Method: A study was conducted to determine kinase selectivity of compounds 27 and 67. More specifically, each compound was tested for inhibitory activity of CSF1R kinase, as compared to that of seven other kinases, i.e., Aurora A, Aurora B, tyrosine-protein kinase Kit (c-Kit), fms-like tyrosine kinase 3 (FLT3), platelet-derived growth factor receptor (PDGFR) A, PDGFR B, and discoidin domain receptor tyrosine kinase 1 (DDR1).
In vitro profiling of the kinase panel was performed at Reaction Biology Corporation (www.reactionbiology.com, Malvern, PA) using the “HotSpot” assay platform. Briefly, specific kinase/substrate pairs along with required cofactors were prepared in a reaction buffer containing 20 mM Hepes pH 7.5, 10 mM MgCl2, 1 mM EGTA, 0.02% Brij35, 0.02 mg/ml BSA, 0.1 mM NA3VO4, 2 mM DTT, and 1% DMSO. Compound 27 or 67 was added. 20 minutes later, a mixture of ATP (Sigma, St. Louis MO) and ^33P ATP (Perkin Elmer, Waltham MA) was added to the resulting reaction solution to give a final concentration of 10 μM. The reaction was carried out at room temperature for 120 min., followed by spotting the reaction solution onto P81 ion exchange filter paper (Whatman Inc., Piscataway, NJ). Unbound phosphate was removed by extensive washing filters in 0.75% phosphoric acid. […] Selectivity, expressed as an IC50 ratio, was determined by dividing the IC50 value of a kinase, e.g., Aurora A, by that of CSF1R.

SMILES | IC50 ratio Aurora A / CSF1R
CN(C)c1ccc2c(Oc3ccc(NC(=O)NCc4ccc(C(F)(F)F)nc4)cc3)ncnc2c1 [Compound 27, 1-(4-((7-(dimethylamino)quinazolin-4-yl)oxy)phenyl)-3-((6-(trifluoromethyl)pyridin-3-yl)methyl)urea] | ++++ (++++: IC50 ratio > 1000)
CN(C)c1ccc2c(Oc3ccc4c(ccn4C(=O)NCc4ccc(C(F)(F)F)nc4)c3)ncnc2c1 [Compound 67, 5-((7-(dimethylamino)quinazolin-4-yl)oxy)-N-((6-(trifluoromethyl)pyridin-3-yl)methyl)-1H-indole-1-carboxamide] | +++ (+++: 1000 > IC50 ratio > 100)
